Data reported in paper PMC9921896 (Molecules, 2023).

Legend:
[1] = Substrate depletion assay in human liver microsomes (HLM); type: in vitro ADME; conditions: pooled human liver microsomes, pH 7.4, test conc. 1.0E-07 M (Table S4)
Method: Microsomal stability was determined for the TbB ligands by monitoring the presence of compound after incubation in CPHH and HLM, as shown in Figure 7 and Figure S18 of the Supporting Information. […] Such an observation with NCEs is common because, with HLM, NADPH is used as a cofactor, thereby focusing mainly on phase 1 oxidation pathways such as P450 metabolism. Although additional enzymes, such as UDP-glucuronosyltransferase (UGTs), are present in HLM, the lack of the associated necessary cofactors prevents them from being functionally active (e.g., uridine diphosphate glucuronic acid (UDPGA)). In contrast, all the three TbB ligands metabolized in cryopreserved hepatocytes (Figure 7). […] The reason could be that hepatocytes have all the necessary enzymes and cofactors for the metabolic processes. Since they contain the complete set of oxidative/reductive, hydrolytic, and conjugative drug metabolizing enzymes found in the liver, they are regarded as the gold standard. Therefore, they are preferred in vitro options for expressing metabolic stability as substrate depletion, total metabolic clearance, and T 1/2 [29].
From the plot shown in Figure S18 of the Supporting Information, it can be inferred that the TbB ligands undergo slow biotransformation in HLM. Such high metabolic stability may result in drug interactions leading to toxicity of the parent compound. On the contrary, TbB ligands are undergoing rapid biotransformation in CPHH (Figure 7), and this may lead to generation of metabolites that are either toxic, active, or nonactive. Metabolic stability is typically expressed by in vitro half-life T 1/2 and intrinsic clearance (CLint) terms. Intrinsic clearance (CLint) is measured using the substrate depletion method. It describes the maximum liver (microsomal proteins or hepatocytes) activity towards a compound not affected by other physiological factors such as hepatic blood flow and drug binding within the blood matrix. T 1/2 is used to express the time for the 50% disappearance of the parent compound. A possible explanation for the difference in metabolic stability might be that the TbB ligands bind to microsomes during incubation. This can result in decreased free TbB ligand levels available to interact with metabolizing enzymes, reducing apparent intrinsic clearance values.
By preincubating a test substance for 5 minutes in phosphate buffer (pH 7.4) at 37 °C in shaking water bath, the stability of the test substance was examined in pooled HLM. After NADPH-generating systems addition, the reaction gets initiated and post incubation for 0, 15, 30, 45, and 60 min, the reaction is terminated with addition of acetonitrile/methanol to the incubation mixture. Supernatant obtained after mixing and centrifuging the sample is analyzed by HPLC-MS/MS. Microsomal protein for final use is at 0.1 mg/mL concentration. Four compounds, namely, propranolol and imipramine, known to be relatively stable, and verapamil and terfenadine, known as readily metabolizing in HLM, were included in each assay. Post HPLC-MS/MS of the samples, data are analyzed by considering test compounds peak area at each time point to time zero. Assuming the reaction to follow first-order kinetics, the slope of the initial linear range of the logarithmic curve of remaining compound (%) vs. time is considered to calculate the half-life. Additionally, the half-life is utilized to calculate the intrinsic clearance (CLint) as shown in the following equation. CLint(μL/min/mgprotein)=0.693/T1/2×proteinconc.

CYP1A2 = target: T1, CYP1A2 (Homo sapiens, UniProt P05177); assay: Single concentration Kobs assay (time-dependent inhibition) in HLM; type: biochemical; conditions: for Kobs 1A2: HLM, 0.02 min^−1 indicates TD inhibition potential; for Kobs 1A2 / inhibition at 30 min: single concentration; for Single concentration Kobs assay (risk bin) 1A2: TD inhibition class from Kobs vs 0.02 min^−1 (Table 5 traffic lights); for inhibition at 30 min: human, human liver microsomes, significant if >50%, read-out: 1A2 R_Inh% (reversible inhibition)
T1 construct: Using HLM as the enzyme source; from tissue; host or cells: human liver microsomes
T1 sequence (P05177 1-516): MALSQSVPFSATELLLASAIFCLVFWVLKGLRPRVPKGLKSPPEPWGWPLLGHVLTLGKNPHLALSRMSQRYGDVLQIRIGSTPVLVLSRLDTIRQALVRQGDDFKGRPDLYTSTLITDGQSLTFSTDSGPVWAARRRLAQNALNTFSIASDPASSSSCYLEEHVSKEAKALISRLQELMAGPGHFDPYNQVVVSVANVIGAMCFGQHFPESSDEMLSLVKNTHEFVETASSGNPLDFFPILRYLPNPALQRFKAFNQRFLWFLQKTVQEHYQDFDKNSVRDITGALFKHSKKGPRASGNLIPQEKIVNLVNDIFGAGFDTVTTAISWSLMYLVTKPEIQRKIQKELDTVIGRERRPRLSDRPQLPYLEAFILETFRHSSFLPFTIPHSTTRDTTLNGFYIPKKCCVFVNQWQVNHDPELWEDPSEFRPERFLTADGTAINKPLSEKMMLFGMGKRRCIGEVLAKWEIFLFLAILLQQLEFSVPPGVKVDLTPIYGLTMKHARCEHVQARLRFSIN
Description: CYP inhibition evaluation is typically performed by either IC50 at single-point or IC50 Shift or abbreviated assay such as the first-order inactivity rate constant (K obs ) at single concentration.
This method yielded good correlations between the percent inhibition at 10 or 25 μ M and kinact/KI. Evaluation of TD inhibition at single concentration has been implemented in several drug discovery programs. […] Therefore, in this study, a single K obs approach has been utilized to understand the TD inhibition potential of TbB ligands. Ideally, the inhibition of CYPs can be reversible or irreversible. The data obtained from single-concentration K obs studies were analyzed to understand the same. From the data presented in Table 4, the TbB ligands have values less than 50% for reversible inhibition (R_Inh). As the qualified % reversible inhibition is considered significant if >50%, no significant reversible inhibition is observed for TbB ligands. Knowledge about enzyme inactivation half-life (E½) is also equally important as it would provide insight into the TD inhibition of a compound. E½ can be used to bin the compounds as positive or negative TD inhibitors if the values are <28 or >28, respectively. The TbB ligand 223-2 is observed to be a weak positive TD inhibitor of 1A2 and is negative TD inhibitor to the other six CYP isoforms.
The time-dependent inhibition (TDI) potential of test compounds against CYP1A2, 2B6, 2C8, 2C9, 2C19, 2D6, 3A4/5 isoforms were determined using Human liver microsomes. Assay is performed in 96-deep well plate format (n = 1). Positive controls and DMSO as negative control in each assay. To obtain 100 μ M working stock solution, 1 μ L of blank DMSO/test/reference compounds to 100 μ L 1× DPBS buffer was added and labeled as dilution plate. To the primary incubation plate, 45 μ L of primary mix was dispensed to the desired wells containing 25 μ L HLM, 10 μ L MgCl2, and 10 μ L of NADPH working solutions. To the secondary incubation plate, 95 μ L of secondary mix was dispensed to the desired wells containing 20 μ L MgCl2, 20 μ L NADPH, 10 μ L respective substrates for CYP isoform working solutions and 45 μ L 1× DPBS buffer. […] Pre-incubated the dilution plate along with primary incubation plate at 37 °C for 15 min at 450 rpm. The reaction was carried out in triplicate. After the incubation, the reaction was quenched by adding 150 μ L ice cold stop solution to all the wells followed by centrifuging the samples at 4000 rpm, 4 °C for 15 min. The supernatant samples were then transferred into vials for LC-MS/MS analysis. […]

Row | SMILES | half-life at 100 nM [1] | microsomal CLint at 100 nM [1] | Kobs 1A2 (CYP1A2) | Kobs 1A2 (CYP1A2; listed as 223-02) | Single concentration Kobs assay (risk bin) 1A2 (CYP1A2) | inhibition at 30 min (CYP1A2) | Kobs 1A2 (CYP1A2; listed as 223-03)
1 | COc1cc(-c2nnn(-c3cc(OC)c(O)c(OC)c3)n2)cc(OC)c1O [223-2] | 13.5 h | < 116 µL/min/mg | 0.0159 min⁻¹ | 0.01594 min⁻¹ | weak positive inhibitor | < 50% | –
2 | Cc1cc(-c2nnn(-c3cc(C)c(O)c(C)c3)n2)cc(C)c1O [223-3] | 1.25 h | < 116 µL/min/mg | 0.0333 min⁻¹ | – | positive inhibitor | < 50% | 0.03334 min⁻¹
3 | Oc1ccc(-c2nnn(-c3ccc(O)cc3)n2)cc1 [223-10] | 3 h | < 116 µL/min/mg | 0.01456 min⁻¹ | – | weak positive inhibitor | < 50% | –
